# Reference: patent publication US11427548B2 (Arvinas Operations, Inc., priority 2015, dated 2022)
# Molecular target: T1, Androgen Receptor (Homo sapiens, UniProt P10275)
# T1 construct: endogenous in cells; host or cells: VCaP cells
# T1 sequence (P10275 1-920): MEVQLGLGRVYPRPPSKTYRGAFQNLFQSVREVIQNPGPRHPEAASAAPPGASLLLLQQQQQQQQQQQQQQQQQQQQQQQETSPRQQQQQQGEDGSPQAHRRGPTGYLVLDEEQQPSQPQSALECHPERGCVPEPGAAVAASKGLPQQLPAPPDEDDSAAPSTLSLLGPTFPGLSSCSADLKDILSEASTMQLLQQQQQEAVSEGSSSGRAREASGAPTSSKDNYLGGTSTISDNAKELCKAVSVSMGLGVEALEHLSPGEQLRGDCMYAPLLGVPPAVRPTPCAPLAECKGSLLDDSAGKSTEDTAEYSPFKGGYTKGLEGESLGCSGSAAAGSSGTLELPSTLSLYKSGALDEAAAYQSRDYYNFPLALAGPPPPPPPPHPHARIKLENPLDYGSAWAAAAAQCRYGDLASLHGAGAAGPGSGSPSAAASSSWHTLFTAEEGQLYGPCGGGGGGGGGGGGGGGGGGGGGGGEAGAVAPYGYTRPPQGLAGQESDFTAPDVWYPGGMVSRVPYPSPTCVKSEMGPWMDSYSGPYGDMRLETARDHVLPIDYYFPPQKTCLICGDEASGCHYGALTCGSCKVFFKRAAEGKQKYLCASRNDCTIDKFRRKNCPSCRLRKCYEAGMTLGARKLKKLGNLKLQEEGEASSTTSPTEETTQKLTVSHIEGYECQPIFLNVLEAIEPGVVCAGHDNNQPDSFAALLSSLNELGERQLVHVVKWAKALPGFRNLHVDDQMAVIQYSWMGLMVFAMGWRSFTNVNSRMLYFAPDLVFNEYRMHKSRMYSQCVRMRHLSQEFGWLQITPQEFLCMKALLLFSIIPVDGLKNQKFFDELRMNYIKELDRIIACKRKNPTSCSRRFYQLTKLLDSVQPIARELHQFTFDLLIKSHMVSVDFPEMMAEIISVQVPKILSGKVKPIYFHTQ
# Assay: Androgen Receptor ELISA assay (PathScan AR ELISA) in VCaP cells: AR degradation, Dmax and DC50
# Format: cell-based
# Conditions: VCaP cells (Table 32); for Dmax: VCaP, highest percentage of Androgen Receptor degradation observed, read-out: VCaP Dmax (%); for DC50: concentration that caused 50% Androgen Receptor degradation, read-out: VCaP DC50
# Method in brief: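 VCaP cells, 30,000/well, grown ≥3 days in phenol red-free RPMI with 5% charcoal-stripped FBS; compound added in 0.1% DMSO with 0.1 nM R1881, 7 half-log doses, 24 h. Lysate AR quantified by PathScan sandwich ELISA, HRP/TMB read at 450 nm, giving DC50 and Dmax.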
Structure (SMILES),Dmax [%],DC50 [nM]
"Cc1ncsc1-c1ccc(CNC(=O)[C@@H]2C[C@@H](O)CN2C(=O)[C@@H](NC(=O)COCCCC[C@@H](C)Oc2ccc(C(=O)N[C@H]3C(C)(C)[C@H](Oc4ccc(C#N)c(Cl)c4)C3(C)C)cc2)C(C)(C)C)cc1 [Example 160, (2S,4R)-1-[(2S)-3,3-dimethyl-2-(2-{[(5S)-5-(4-{[trans-3-(3-chloro-4-cyanophenoxy)-2,2,4,4-tetramethylcyclobutyl]carbamoyl}phen-oxy)hexyl]oxy}acetamido)butanoyl]-4-hydroxy-N-{[4-(4-methyl-1,3-thiazol-5-yl)phenyl]methyl}pyrrolidine-2-carboxamide]",> 71,< 50
"Cc1ncsc1-c1ccc(CNC(=O)[C@@H]2C[C@@H](O)CN2C(=O)[C@@H](NC(=O)COCCCC[C@H](C)Oc2ccc(C(=O)N[C@H]3C(C)(C)[C@H](Oc4ccc(C#N)c(Cl)c4)C3(C)C)cc2)C(C)(C)C)cc1 [Example 161, (2S,4R)-1-[(2S)-3,3-dimethyl-2-(2-{[(5R)-5-(4-{[trans-3-(3-chloro-4-cyanophenoxy)-2,2,4,4-tetramethylcyclobutyl]carbamoyl}phen-oxy)hexyl]oxy}acetamido)butanoyl]-4-hydroxy-N-{[4-(4-methyl-1,3-thiazol-5-yl)phenyl]methyl}pyrrolidine-2-carboxamide]",> 71,< 50
"CC(C)(C)[C@H](NC(=O)COCCOCCCCOc1ccc(C(=O)N[C@H]2C(C)(C)[C@H](Oc3ccc(C#N)c(Cl)c3)C2(C)C)cc1)C(=O)N1C[C@H](O)C[C@H]1C(=O)NCc1ccc(-c2cncs2)cc1 [Example 162, (2S,4R)-1-[(2S)-3,3-dimethyl-2-(2-{2-[4-(4-{[trans-3-(3-chloro-4-cyanophenoxy)-2,2,4,4-tetramethylcyclobutyl]carbamoyl}phenoxy)butoxy]ethoxy}acetamido)butanoyl]-4-hydroxy-N-{[4-(1,3-thiazol-5-yl)phenyl]methyl}pyrrolidine-2-carboxamide]",> 71,< 50
"Cc1ncoc1-c1ccc(CNC(=O)[C@@H]2C[C@@H](O)CN2C(=O)[C@@H](NC(=O)COCCCCOc2ccc(C(=O)N[C@H]3C(C)(C)[C@H](Oc4ccc(C#N)c(Cl)c4)C3(C)C)cc2)C(C)(C)C)cc1 [Example 164, (2S,4R)-1-[(2S)-3,3-dimethyl-2-{2-[4-(4-{[trans-3-(3-chloro-4-cyanophenoxy)-2,2,4,4-tetramethylcyclobutyl]carbamoyl}phenoxy)butoxy]acetamido}butanoyl]-4-hydroxy-N-{[4-(4-methyl-1,3-oxazol-5-yl)phenyl]methyl}pyrrolidine-2-carboxamide]",> 71,< 50
"Cc1ncsc1-c1ccc(CNC(=O)[C@@H]2C[C@@H](O)CN2C(=O)[C@@H](NC(=O)COCCCCOc2ccc(C(=O)N[C@H]3C(C)(C)[C@H](Oc4ccc(C#N)c(C(F)(F)F)c4)C3(C)C)cc2)C(C)(C)C)cc1 [Example 165, (2S,4R)-1-[(2S)-3,3-dimethyl-2-{2-[4-(4-{[trans-3-[4-cyano-3-(trifluoromethyl)phenoxy]-2,2,4,4-tetramethylcyclobutyl]carbamoyl}phenoxy)butoxy]acetamido}butanoyl]-4-hydroxy-N-{[4-(4-methyl-1,3-thiazol-5-yl)phenyl]methyl}pyrrolidine-2-carboxamide]",> 71,< 50
"Cc1ncoc1-c1ccc(CNC(=O)[C@@H]2C[C@@H](O)CN2C(=O)[C@@H](NC(=O)COCCCCOc2ccc(C(=O)N[C@H]3C(C)(C)[C@H](Oc4ccc(C#N)c(C(F)(F)F)c4)C3(C)C)cc2)C(C)(C)C)cc1 [Example 166, (2S,4R)-1-[(2S)-3,3-dimethyl-2-{2-[4-(4-{[trans-3-[4-cyano-3-(trifluoromethyl)phenoxy]-2,2,4,4-tetramethylcyclobutyl]carbamoyl}phenoxy)butoxy]acetamido}butanoyl]-4-hydroxy-N-{[4-(4-methyl-1,3-oxazol-5-yl)phenyl]methyl}pyrrolidine-2-carboxamide]",51 to 70,< 50
